Source: patent US20250346592A1 (Celgene Corporation, priority 2022, published 2025)

Biological target: hPAD4 enzyme (Homo sapiens (Human), UniProt Q9UM07)
Test: RFMS2 assay (RapidFire mass spectrometry, TSTGGRQGSHH peptide substrate)
Assay type: biochemical
Conditions: 35 nM recombinant human PAD4, 500 μM TSTGGRQGSHH peptide, 30 minutes at room temperature; read-out: RFMS 2 IC50
Method in brief: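 Recombinant human PAD4 (35 nM) with 500 μM TSTGGRQGSHH peptide in HEPES pH 7.4, 200 mM NaCl, 2 mM CaCl2, 5 mM DTT, 1.2% DMSO, 30 min at room temperature; 3-fold compound series, top 20 μM. Quenched with formic acid; substrate and citrullinated product quantified by RapidFire MRM mass spectrometry for IC50.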

hPAD4 enzyme, sequence (Q9UM07 whole entry): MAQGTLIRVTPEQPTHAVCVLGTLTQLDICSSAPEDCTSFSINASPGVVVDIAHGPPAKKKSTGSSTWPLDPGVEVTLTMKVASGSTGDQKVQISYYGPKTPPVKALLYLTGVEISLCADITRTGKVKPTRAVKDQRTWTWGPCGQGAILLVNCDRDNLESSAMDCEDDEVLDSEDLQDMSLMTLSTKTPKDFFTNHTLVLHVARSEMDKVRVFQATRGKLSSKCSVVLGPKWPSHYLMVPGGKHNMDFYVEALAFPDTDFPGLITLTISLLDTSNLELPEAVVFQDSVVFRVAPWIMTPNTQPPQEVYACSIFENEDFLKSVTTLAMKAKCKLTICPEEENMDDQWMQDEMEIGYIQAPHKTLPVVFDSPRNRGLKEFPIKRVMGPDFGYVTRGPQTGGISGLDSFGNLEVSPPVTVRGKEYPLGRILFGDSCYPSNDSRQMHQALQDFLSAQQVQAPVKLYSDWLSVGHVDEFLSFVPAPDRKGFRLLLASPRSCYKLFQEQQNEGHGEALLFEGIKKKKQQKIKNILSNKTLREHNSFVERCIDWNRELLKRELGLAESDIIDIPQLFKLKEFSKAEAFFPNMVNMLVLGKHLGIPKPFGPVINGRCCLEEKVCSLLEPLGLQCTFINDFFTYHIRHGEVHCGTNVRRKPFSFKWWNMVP

SMILES | IC50
C[C@@H](N)CN1CCc2cc3c(cc2C1=O)nc(-c1cc2ccc(Cl)nc2n1CC1CC1)n3C [Example 43, (R)-6-(2-aminopropyl)-2-(6-chloro-1-(cyclopropylmethyl)-1H-pyrrolo[2,3-b]pyridin-2-yl)-1-methyl-1,6,7,8-tetrahydro-5H-imidazo[4,5-g]isoquinolin-5-one] | 101 to 500 nM
C[C@@H](N)CN1CCc2cc3c(cc2C1=O)nc(-c1cc2cccc(F)c2n1CC1CC1)n3C [Example 30, (R)-6-(2-aminopropyl)-2-(1-(cyclopropylmethyl)-7-fluoro-1H-indol-2-yl)-1-methyl-1,6,7,8-tetrahydro-5H-imidazo[4,5-g]isoquinolin-5-one] | 101 to 500 nM
COc1ccc2cc(-c3nc4cc5c(cc4n3C)CCN(C[C@@H](C)N)C5=O)n(CC3CC3)c2c1 [Example 18, (R)-6-(2-aminopropyl)-2-(1-(cyclopropylmethyl)-6-methoxy-1H-indol-2-yl)-1-methyl-1,6,7,8-tetrahydro-5H-imidazo[4,5-g]isoquinolin-5-one] | 101 to 500 nM
C[C@H](CCO)Oc1cccc2cc(-c3nc4cc5c(cc4n3C)CCN(C[C@H](N)CF)C5=O)n(CC3CC3)c12 [Example 192, 6-((S)-2-amino-3-fluoropropyl)-2-(1-(cyclopropylmethyl)-7-(((R)-4-hydroxybutan-2-yl)oxy)-1H-indol-2-yl)-1-methyl-1,6,7,8-tetrahydro-5H-imidazo[4,5-g]isoquinolin-5-one] | 101 to 500 nM
COc1ccc2cc(-c3nc4cc5c(cc4n3C)CCN(C[C@H](N)CF)C5=O)n(CC3CC3)c2c1 [Example 50, (S)-6-(2-amino-3-fluoropropyl)-2-(1-(cyclopropylmethyl)-6-methoxy-1H-indol-2-yl)-1-methyl-1,6,7,8-tetrahydro-5H-imidazo[4,5-g]isoquinolin-5-one] | 101 to 500 nM
Cn1c(-c2cc3cccc(OCC4(C)CNC(=O)C4)c3n2CC2CC2)nc2cc3c(cc21)CCN(C[C@H](N)CF)C3=O (single isomer, unassigned) [Example 220] | 501 to 1000 nM
Cn1c(-c2cc3cccnc3n2CC2CC2)nc2cc3c(cc21)CCN(C[C@H](N)CF)C3=O [Example 49, (S)-6-(2-amino-3-fluoropropyl)-2-(1-(cyclopropylmethyl)-1H-pyrrolo[2,3-b]pyridin-2-yl)-1-methyl-1,6,7,8-tetrahydro-5H-imidazo[4,5-g]isoquinolin-5-one] | > 1000 nM
COCCOc1cccc2cc(-c3nc4cc5c(cc4n3C)CCN(C[C@H](N)CF)C5=O)n(CC3CC3)c12 [Example 153, (S)-6-(2-amino-3-fluoropropyl)-2-(1-(cyclopropyl-methyl)-7-(2-methoxyethoxy)-1H-indol-2-yl)-1-methyl-1,6,7,8-tetrahydro-5H-imidazo[4,5-g] isoquinolin-5-one] | 101 to 500 nM
Cn1c(-c2cc3ccccc3n2CC2CCC2)nc2cc3c(cc21)CCN(C[C@H](N)CF)C3=O [Example 101, (S)-6-(2-amino-3-fluoropropyl)-2-(1-(cyclobutylmethyl)-1H-indol-2-yl)-1-methyl-1,6,7,8-tetrahydro-5H-imidazo[4,5-g]isoquinolin-5-one] | 101 to 500 nM
Cn1c(-c2cc3cccc(OC[C@H]4CNCCO4)c3n2CC2CC2)nc2cc3c(cc21)CCN(C[C@H](N)CF)C3=O [Example 160, 6-((S)-2-amino-3-fluoropropyl)-2-(1-(cyclopropylmethyl)-7-(((R)-morpholin-2-yl)methoxy)-1H-indol-2-yl)-1-methyl-1,6,7,8-tetrahydro-5H-imidazo[4,5-g]isoquinolin-5-one] | 501 to 1000 nM
C[C@@H](N)CN1CCc2cc3c(cc2C1=O)nc(-c1c(F)c2ccccc2n1CC1CC1)n3C [Example 46, (R)-6-(2-aminopropyl)-2-(1-(cyclopropylmethyl)-3-fluoro-1H-indol-2-yl)-1-methyl-1,6,7,8-tetrahydro-5H-imidazo[4,5-g]isoquinolin-5-one] | 501 to 1000 nM
Cn1c(-c2cc3ccccc3n2CC2CC2)nc2cc3c(cc21)CCN(CC(N)CC(F)(F)F)C3=O (stereo not drawn) [Example 7, 6-(2-amino-4,4,4-trifluorobutyl)-2-(1-(cyclopropylmethyl)-1H-indol-2-yl)-1-methyl-1,6,7,8-tetrahydro-5H-imidazo[4,5-g]isoquinolin-5-one] | > 1000 nM

Second part, the compound after the results:

IC50 | SMILES
101 to 500 nM | COc1cccc2cc(-c3nc4cc5c(cc4n3C)CCN(C[C@H](N)CF)C5=O)n(Cc3nnco3)c12 [Example 116, (S)-2-(1-((1,3,4-oxadiazol-2-yl)methyl)-7-methoxy-1H-indol-2-yl)-6-(2-amino-3-fluoropropyl)-1-methyl-1,6,7,8-tetrahydro-5H-imidazo[4,5-g]isoquinolin-5-one]
501 to 1000 nM | COc1cccc2cc(-c3nc4cc5c(cc4n3C)CCN(C[C@H](N)CF)C5=O)n(CC(C)OC)c12 (single isomer, unassigned) [Example 131]
11 to 100 nM | COc1cccc2cc(-c3nc4cc5c(cc4n3C)CCN(C[C@H](N)CF)C5=O)n(Cc3ccns3)c12 [Example 118, (S)-6-(2-amino-3-fluoropropyl)-2-(1-(isothiazol-5-ylmethyl)-7-methoxy-1H-indol-2-yl)-1-methyl-1,6,7,8-tetrahydro-5H-imidazo[4,5-g]isoquinolin-5-one]
101 to 500 nM | COc1cccc2cc(-c3nc4cc5c(cc4n3C)CCN(C[C@H](N)CF)C5=O)n(Cc3ncc(C)o3)c12 [Example 125, (S)-6-(2-amino-3-fluoropropyl)-2-(7-methoxy-1-((5-methyloxazol-2-yl)methyl)-1H-indol-2-yl)-1-methyl-1,6,7,8-tetrahydro-5H-imidazo[4,5-g]isoquinolin-5-one]
101 to 500 nM | COc1cccc2cc(-c3nc4cc5c(cc4n3C)CCN(C[C@H](N)CF)C5=O)n(Cc3coc(C)n3)c12 [Example 145, (S)-6-(2-amino-3-fluoropropyl)-2-(7-methoxy-1-((2-methyloxazol-4-yl)methyl)-1H-indol-2-yl)-1-methyl-1,6,7,8-tetrahydro-5H-imidazo[4,5-g]isoquinolin-5-one]
101 to 500 nM | COc1cccc2cc(-c3nc4cc5c(cc4n3C)CCN(C[C@H](N)CF)C5=O)n(Cc3nc(C)no3)c12 [Example 129, (S)-6-(2-amino-3-fluoropropyl)-2-(7-methoxy-1-((3-methyl-1,2,4-oxadiazol-5-yl)methyl)-1H-indol-2-yl)-1-methyl-1,6,7,8-tetrahydro-5H-imidazo[4,5-g]isoquinolin-5-one]
101 to 500 nM | Cc1cc(Cn2c(-c3nc4cc5c(cc4n3C)CCN(C[C@H](N)CF)C5=O)cc3ccccc32)on1 [Example 97, (S)-6-(2-amino-3-fluoropropyl)-1-methyl-2-(1-((3-methylisoxazol-5-yl)methyl)-1H-indol-2-yl)-1,6,7,8-tetrahydro-5H-imidazo[4,5-g]isoquinolin-5-one]
101 to 500 nM | Cn1c(-c2cc3cccc(OCc4ccno4)c3n2CC2CC2)nc2cc3c(cc21)CCN(C[C@H](N)CF)C3=O [Example 175, (S)-6-(2-amino-3-fluoropropyl)-2-(1-(cyclopropyl-methyl)-7-(isoxazol-5-ylmethoxy)-1H-indol-2-yl)-1-methyl-1,6,7,8-tetrahydro-5H-imidazo[4,5-g] isoquinolin-5-one]
101 to 500 nM | COc1cccc2cc(-c3nc4cc5c(cc4n3C)CCN(C[C@H](N)CF)C5=O)n(C[C@H]3CCCO3)c12 [Example 132, 6-((S)-2-amino-3-fluoropropyl)-2-(7-methoxy-1-(((R)-tetrahydrofuran-2-yl)methyl)-1H-indol-2-yl)-1-methyl-1,6,7,8-tetrahydro-5H-imidazo[4,5-g]isoquinolin-5-one]
